Measurements published in PubChem BioAssay AID1259407 (Chemical Carcinogenesis Research Information System (CCRIS), 2018).
The source made the active and inactive calls. The rule behind the calls is not given here.

System: CCRIS mutagenicity, Ames/micronucleus/aberration tests
Test: CCRIS mutagenicity studies
[1] = Test System: AMES SALMONELLA TYPHIMURIUM, Strain/Indicator: TA98, Metabolic Activation: NONE, Method: PREINCUBATION
[2] = Test System: AMES SALMONELLA TYPHIMURIUM, Strain/Indicator: TA100, Metabolic Activation: NONE, Method: PREINCUBATION
[3] = Test System: MOUSE LYMPHOMA, Strain/Indicator: L5178Y (TK+/TK-), Metabolic Activation: RAT, LIVER, S-9, AROCLOR 1254, Method: SUSPENSION/PLATE

SMILES: CCN(Cc1cccc(S(=O)(=O)O)c1)c1ccc(C(=C2C=CC(=[N+](CC)Cc3cccc(S(=O)(=O)O)c3)C=C2)c2ccccc2S(=O)(=O)[O-])cc1
- mutagenic call (End Point: IN VIVO MICRONUCLEUS, Test System: BONE MARROW POLYCHROMATIC ERYTHROCYTES, Species: MOUSE, Strain/Sex: DDY/MALE, Route: IP): inactive; negative
- mutagenic call (Test System: AMES SALMONELLA TYPHIMURIUM, Strain/Indicator: TA98, Metabolic Activation: HAMSTER, LIVER, S-9, AROCLOR 1254, Method: STANDARD PLATE): active; positive
- mutagenic call (Test System: AMES SALMONELLA TYPHIMURIUM, Strain/Indicator: TA98, Metabolic Activation: HAMSTER, LIVER, S-9, Method: PREINCUBATION (PRIVAL METHOD)): active; positive
- mutagenic call [1]: inactive; negative
- mutagenic call (Test System: AMES SALMONELLA TYPHIMURIUM, Strain/Indicator: TA98, Metabolic Activation: S-9, Method: PREINCUBATION): inactive; negative
- mutagenic call (Test System: AMES SALMONELLA TYPHIMURIUM, Strain/Indicator: TA100, Metabolic Activation: HAMSTER, LIVER, S-9, Method: PREINCUBATION (PRIVAL METHOD)): active; positive
- mutagenic call [2]: inactive; negative
- mutagenic call (Test System: AMES SALMONELLA TYPHIMURIUM, Strain/Indicator: TA100, Metabolic Activation: S-9, Method: PREINCUBATION): inactive; negative
- mutagenic call (Test System: AMES SALMONELLA TYPHIMURIUM, Strain/Indicator: TA1538, Metabolic Activation: RAT, LIVER, S-9, AROCLOR 1254, HAMSTER, LIVER, S-9, AROCLOR 1254, Method: STANDARD PLATE): active; positive
- mutagenic call [3]: active; positive. reevaluation of results: positive
- mutagenic call (Test System: Mouse lymphoma, Strain/Indicator: L5178Y (tk+/tk-), Metabolic Activation: None, Method: Suspension/plate): inactive; negative

SMILES: C[N+]1=CC=C(c2ccccc2)CC1
- mutagenic call [2]: active; positive
- mutagenic call (Test System: AMES SALMONELLA TYPHIMURIUM, Strain/Indicator: TA102, Metabolic Activation: NONE, Method: PREINCUBATION): inactive; negative

SMILES: C1=Cc2c3cc4ccccc4cc3cc3cccc1c23
- mutagenic call (Test System: AMES SALMONELLA TYPHIMURIUM, Strain/Indicator: TA98, Metabolic Activation: NONE, Method: STANDARD PLATE): active; positive
- mutagenic call (Test System: AMES SALMONELLA TYPHIMURIUM, Strain/Indicator: TA98, Metabolic Activation: RAT, LIVER, S-9, AROCLOR 1254 (0.127 OR 1.27 MG S-9 PROTEIN), Method: STANDARD PLATE): active; positive

SMILES: O=[N+]([O-])c1cccc(Cl)c1F
- mutagenic call (End Point: IN VITRO CHROMOSOMAL ABERRATIONS, Test System: CHL CELLS, Metabolic Activation: RAT, LIVER, S-9, SODIUM PHENOBARBITAL AND 5,6-BENZOFLAVONE): active; positive (structural changes)

SMILES: CCCCCCC1CO1 (stereo not drawn)
- mutagenic call (Test System: AMES SALMONELLA TYPHIMURIUM, Strain/Indicator: TA100, Metabolic Activation: NONE, Method: STANDARD PLATE): inactive; negative
- mutagenic call (Test System: AMES SALMONELLA TYPHIMURIUM, Strain/Indicator: TA1535, Metabolic Activation: NONE, Method: STANDARD PLATE): inactive; negative
- mutagenic call (Test System: UDS RAT HEPATOCYTES, Strain/Indicator: THY INCORP, Metabolic Activation: NONE): inactive; negative

SMILES: CC(Br)(CBr)CBr
- mutagenic call (Test System: AMES SALMONELLA TYPHIMURIUM, Strain/Indicator: TA98, Metabolic Activation: NONE, Method: FLASK ASSAY): inactive; negative
- mutagenic call (Test System: AMES SALMONELLA TYPHIMURIUM, Strain/Indicator: TA98, Metabolic Activation: RAT, LIVER, S-9, AROCLOR 1254, Method: FLASK ASSAY): inactive; negative
- mutagenic call (Test System: AMES SALMONELLA TYPHIMURIUM, Strain/Indicator: TA100, Metabolic Activation: NONE, Method: FLASK ASSAY): inactive; negative
- mutagenic call (Test System: AMES SALMONELLA TYPHIMURIUM, Strain/Indicator: TA100, Metabolic Activation: RAT, LIVER, S-9, AROCLOR 1254, Method: FLASK ASSAY): inactive; negative
- mutagenic call (Test System: AMES SALMONELLA TYPHIMURIUM, Strain/Indicator: TA1535, Metabolic Activation: NONE, Method: FLASK ASSAY): inactive; negative
- mutagenic call (Test System: AMES SALMONELLA TYPHIMURIUM, Strain/Indicator: TA1535, Metabolic Activation: RAT, LIVER, S-9, AROCLOR 1254, Method: FLASK ASSAY): inactive; negative
- mutagenic call (Test System: AMES SALMONELLA TYPHIMURIUM, Strain/Indicator: TA1537, Metabolic Activation: NONE, Method: FLASK ASSAY): inactive; negative
- mutagenic call (Test System: AMES SALMONELLA TYPHIMURIUM, Strain/Indicator: TA1537, Metabolic Activation: RAT, LIVER, S-9, AROCLOR 1254, Method: FLASK ASSAY): inactive; negative
- mutagenic call (Test System: AMES SALMONELLA TYPHIMURIUM, Strain/Indicator: TA1538, Metabolic Activation: NONE, Method: FLASK ASSAY): inactive; negative
- mutagenic call (Test System: AMES SALMONELLA TYPHIMURIUM, Strain/Indicator: TA1538, Metabolic Activation: RAT, LIVER, S-9, AROCLOR 1254, Method: FLASK ASSAY): inactive; negative
- mutagenic call (Test System: MOUSE LYMPHOMA, Strain/Indicator: L5178Y (TK+/TK-), Metabolic Activation: NONE, Method: SUSPENSION/PLATE): active; positive
- mutagenic call [3]: active; positive

SMILES: CCNc1cccc(O)c1
- mutagenic call (Test System: AMES SALMONELLA TYPHIMURIUM, Strain/Indicator: TA97, Metabolic Activation: HAMSTER, LIVER, S-9, AROCLOR 1254 (10%), Method: PREINCUBATION): inactive; negative
- mutagenic call (Test System: AMES SALMONELLA TYPHIMURIUM, Strain/Indicator: TA97, Metabolic Activation: NONE, Method: PREINCUBATION): inactive; negative
- mutagenic call (Test System: AMES SALMONELLA TYPHIMURIUM, Strain/Indicator: TA97, Metabolic Activation: RAT, LIVER, S-9, AROCLOR 1254 (10%), Method: PREINCUBATION): inactive; negative
- mutagenic call (Test System: AMES SALMONELLA TYPHIMURIUM, Strain/Indicator: TA98, Metabolic Activation: HAMSTER, LIVER, S-9, AROCLOR 1254 (10%), Method: PREINCUBATION): active; positive
- mutagenic call [1]: inactive; negative
- mutagenic call (Test System: AMES SALMONELLA TYPHIMURIUM, Strain/Indicator: TA98, Metabolic Activation: RAT, LIVER, S-9, AROCLOR 1254 (10%), Method: PREINCUBATION): active; positive
- mutagenic call (Test System: AMES SALMONELLA TYPHIMURIUM, Strain/Indicator: TA100, Metabolic Activation: HAMSTER, LIVER, S-9, AROCLOR 1254 (10%), Method: PREINCUBATION): inactive; negative
- mutagenic call [2]: inactive; negative
- mutagenic call (Test System: AMES SALMONELLA TYPHIMURIUM, Strain/Indicator: TA100, Metabolic Activation: RAT, LIVER, S-9, AROCLOR 1254 (10%), Method: PREINCUBATION): inactive; negative
- mutagenic call (Test System: AMES SALMONELLA TYPHIMURIUM, Strain/Indicator: TA1535, Metabolic Activation: HAMSTER, LIVER, S-9, AROCLOR 1254 (10%), Method: PREINCUBATION): inactive; negative
- mutagenic call (Test System: AMES SALMONELLA TYPHIMURIUM, Strain/Indicator: TA1535, Metabolic Activation: NONE, Method: PREINCUBATION): inactive; negative
- mutagenic call (Test System: AMES SALMONELLA TYPHIMURIUM, Strain/Indicator: TA1535, Metabolic Activation: RAT, LIVER, S-9, AROCLOR 1254 (10%), Method: PREINCUBATION): inactive; negative
